# Experimental data taken from US20020142457A1, “Cell having the potentiality of differentiation into cardiomyocytes” (priority 1999, published 2002).
# Tests used:
# [1] = system: mouse bone marrow-derived pluripotent stem cells (BMSC); test: Quantitative PCR of genes expressed in myotubes from BMSC; type: cell-based; conditions: with 5-aza-C 3 μM; for expression of cTnI or ANP specifically relating to a myocardium: PDGF 10 ng/ml, retinoic acid 10^−9 M
# Description: (§1) RNAs were collected from the myotubes thus obtained. And genes expressed in the myotubes were analyzed with quantitative PCR analysis using the synthetic oligonucleotides represented by SEQ ID NOS:71 to 78. As a result, PDGF or retinoic acid promoted the expression of MyoD and fTnI genes relating to a skeletal muscle but not cTnI or ANP specifically relating to a myocardium. Next, mouse bone marrow-derived pluripotent stem cells (BMSC) having the potential to differentiate into cardiomyocytes were inoculated in a 60-mm culture dish at a density of 2×10^4 cells/ml and cultured using an incubator at 33° C. under 5% of CO2.
# RNAs were collected from the myotubes thus obtained. And genes expressed in the myotubes were analyzed with quantitative PCR using the synthetic oligonucleotides represented by SEQ ID NOS:71 to 78. As a result, the FGF-8, ET-1, midkine and BMP4 each individually promoted the expression of cTnI and ANP gene which are myocardium-specific genes.
# KUM2 cells = test: Induction of spontaneously beating cardiomyocytes in KUM2 cells by 5-aza-C; type: cell-based, mouse; conditions: 5-aza-C 3 μM for 24 hours
# Description: After culturing for about 4 months under the above conditions, immortalized cells were selected and diluted to establish 192 cell lines respectively derived from single cells (hereinafter referred to as bone marrow-derived first passage immortalized cell lines). To each of these clone-derived cell lines was added 5-aza-C at a final concentration of 3 μM, and the cells were cultured for 24 hours. After culturing for further 2 weeks in IMDM, clones that produced spontaneously beating cells were selected. […] One of three cell lines is KUM2. Hereinafter, unless otherwise indicated, the bone marrow cell KUM2 and mouse bone marrow-derived pluripotent stem cells (BMSC) described below were cultured in IMDM supplemented with 20% FCS, […] penicillin, 250 ng/ml streptomycin and […] amphotericin at 33° C. using a 5% CO2-incubator. When the KUM2 cells were exposed to 5-aza-C having a final concentration of 3 μM for 24 hours, nonspecific differentiation into spontaneously beating cardiomyocytes was induced. However, the frequency is very low (one or less per 10^7 cells).
# [2] = system: mouse bone marrow-derived pluripotent stem cells (BMSC); test: Differentiation of BMSC into myotubes, phase-contrast microscope; type: cell-based; conditions: 5-aza-C 3 μM in all dishes
# Description: The mouse bone marrow-derived pluripotent stem cells (BMSC) having the potential to differentiate into cardiomyocytes were plated into 60-mm culture dishes and 60 mm fibronectin-coated dishes (Becton Dickinson) at a density of 2×10^4 cells/ml and cultured at 33° C. in a 5% CO2-incubator.
# On the next day, 5-aza-C was added to each culture medium in a final concentration of 3 μM, followed by culturing with the following 3 different treatments, with addition of PDGF (culture dish A), both PDGF and retinoic acid (culture dish B) or without addition of any compound (culture dish C) (final concentration: PDGF, 10 ng/ml; retinoic acid, 10^−9 M).
# On the next day, the medium was replaced with a fresh medium to remove 5-aza-C therefrom. Then, PDGF was added to the culture dish A until the final concentration of PDGF came to be 10 ng/ml, while PDGF and retinoic acid were added to the culture dish B until the final concentrations of PDGF and retinoic acid came to be 10 ng/ml and 10^−9 M, respectively. Two and four days thereafter, the medium was replaced and the PDGF or retinoic acid was further added.
# As a result, about 30% of the cells in the culture dish containing 5-aza-C alone differentiated into myotubes, while about 40% of the cells in the culture dish containing PDGF and about 50% of the cells in the culture dish containing PDGF together with retinoic acid differentiated into myotubes. In the three groups of the fibronectin-coated dishes, the ratio of the cells differentiated into myotubes was about 10% higher than in the three groups of the culture dishes.
# as §1
# On the next day, 5-aza-C was added to the liquid culture medium to give a final concentration of 3 μM. Furthermore, five treatments differing from each other were performed by adding FGF-8 to give a final concentration of 10 ng/ml (culture dish D); adding ET-1 to give a final concentration of 10 ng/ml (culture dish E); adding a midkine to give a final concentration of 10 ng/ml (Culture dish F); adding BMP4 to give a final concentration of 10 ng/ml (culture dish G); and adding no compound (culture dish H), followed by culturing.
# On the next day, the medium was replaced by a fresh medium to eliminate 5-aza-C therefrom. Then, FGF-8 was added to the culture dish D to give a final concentration of 10 ng/ml; ET-1 was added to the culture dish E to give a final concentration of 10 ng/ml; the midkine was added to the culture dish F to give a final concentration of 10 ng/ml; and BMP4 was added to the culture dish G to give a final concentration of 10 ng/ml, followed by culturing. Two and four days thereafter, the medium was replaced and the FGF-8, ET-1, midkine or BMP4 was further added.
# As a result, about 30% of the cells in the culture dish containing 5-aza-C alone differentiated into myotubes, while about 50% of the cells in the culture dishes containing FGF-8, ET-1, midkine or BMP4 differentiated into myotubes respectively.
# [3] = system: Nkx2.5/Csx and GATA4 co-forced expressing bone marrow cells (BMSC-Nkx2.5-GATA4); test: Differentiation of BMSC-Nkx2.5-GATA4 with cytokines, phase-contrast microscope; type: cell-based, mouse; conditions: BMSC-Nkx2.5-GATA4, 5-aza-C 3 μM in all dishes; cytokine 10 ng/ml; four weeks
# Description: The Nkx2.5/Csx and GATA4 co-forced expressing bone marrow cells (BMSC-Nkx2.5-GATA4) having the potential to differentiate into cardiomyocytes were plated into a 60-mm culture dish at a density of 2×10^4 cells/ml and cultured at 33° C. in a 5% CO2-incubator.
# On the next day, 5-aza-C was added to the culture medium to give a final concentration of 3 μM. Furthermore, 5 treatments differing from each other were carried out by adding FGF-8 to give a final concentration of 10 ng/ml (culture dish I); adding ET-1 to give a final concentration of 10 ng/ml (culture dish J); adding midkine to give a final concentration of 10 ng/ml (culture dish K); adding BMP4 to give a final concentration of 10 ng/ml (culture dish L); and adding nothing (culture dish M), followed by culturing.
# On the next day, the medium was replaced with a fresh medium to eliminate 5-aza-C. Then, FGF-8 was added to the culture dish I to give a final concentration of 10 ng/ml; ET-1 was added to the culture dish J to give a final concentration of 10 ng/ml; midkine was added to the culture dish K to give a final concentration of 10 ng/ml; and BMP4 was added to the culture dish L to give a final concentration of 10 ng/ml, followed by culturing. Two and four days thereafter, furthermore, the medium was replaced, and the FGF-8, ET-1, midkine or BMP4 was added.
# As a result, about 30% of the cells in the culture dish containing 5-aza-C alone were converted into myotubes, while about 50% of the cells in the culture dishes containing FGF-8, ET-1, midkine or BMP4 differentiated into myotubes respectively. On the other hand, the addition of FGF-8, ET-1, midkine or BMP4 caused no increase in beating cardiomyocytes.
# Bone marrow cells (BMSC) = test: Induction of adipocytes from BMSC by PPAR-γ receptor agonists; type: cell-based, mouse
# Description: Bone marrow cells (BMSC) having the potential to differentiate into cardiomyocytes can be induced to differentiate not only into cardiomyocytes but also into adipocytes. To control the differentiation into adipocytes, the conditions for the induction of the differentiation were examined. First, the expression of PPAR-y receptors was analyzed by the quantitative PCR method. […] Subsequently, PPAR-γ receptor agonists, pioglitazone and troglitazone, were added at various concentrations to bone marrow cells (BMSC) having the potential to differentiate into cardiomyocytes.
# [4] = system: mouse bone marrow-derived pluripotent stem cells (BMSC); test: Induction of differentiation of BMSC into cardiomyocytes using DMSO; type: cell-based; conditions: then 6 weeks
# Description: According to the method described in Example 1, mouse bone marrow-derived pluripotent stem cells (BMSC) having the potential to differentiate into cardiomyocytes were obtained and cultured for 24 hours in the presence of 10 μM DMSO instead of 3 μM 5-aza-C. The medium was replaced with IMDM, followed by culturing for 6 weeks.
# [5] = culture dishes, PDGF 10 ng/ml, retinoic acid 10^−9 M, four weeks
Molecule,expression of MyoD and fTnI genes relating to a skeletal muscle [1],expression of cTnI or ANP specifically relating to a myocardium [1],"cells differentiated into myotubes [2, 5]",BMSCs differentiated into adipocytes (Bone marrow cells (BMSC); 0.4 μM),BMSCs differentiated into adipocytes (Bone marrow cells (BMSC); 2 μM),also measured
"CC1=C(/C=C/C(C)=C/C=C/C(C)=C/C(=O)O)C(C)(C)CCC1 [retinoic acid, all trans retinoic acid, reference compound]",promoted,not,–,–,–,–
"Nc1ncn([C@@H]2O[C@H](CO)[C@@H](O)[C@H]2O)c(=O)n1 [5-aza-C, 5-azacytidine, reference compound]",–,–,about 30%,–,–,"frequency of differentiation into spontaneously beating cardiomyocytes (KUM2 cells): one or less; cells differentiated into myotubes ([2]; cytokine 10 ng/ml, four weeks after addition of 5-aza-C): about 30%; cells differentiated into myotubes [3]: about 30%"
CCc1ccc(CCOc2ccc(CC3SC(=O)NC3=O)cc2)nc1 (stereo not drawn) [pioglitazone],–,–,–,about 50%,~100%,–
"C[S+](C)[O-] [DMSO, dimethyl sulfoxide]",–,–,–,–,–,differentiation into beating cardiomyocytes ([4]; 10 μM DMSO for 24 hours instead of 5-aza-C): induced to differentiate into beating cardiomyocytes; expression of Nkx2.5/Csx and GATA4 genes in produced cells ([4]; 10 μM DMSO for 24 hours): expressed
PDGF,promoted,not,about 40%,–,–,–
Cc1c(C)c2c(c(C)c1O)CCC(C)(COc1ccc(CC3SC(=O)NC3=O)cc1)O2 (stereo not drawn) [troglitazone],–,–,–,about 50%,~100%,–
